Experimental data published in ChEMBL document CHEMBL3886572, “Cyclic amides” (2016).

Target: Procathepsin L (Homo sapiens, UniProt P07711)
Assay: Assay buffer: 100 mM potassium phosphate pH 6.5, EDTA-Na 5 mM, Triton X-100 0.001%, DDT 5 mM. […] AMC=7-Amino-4-Methyl-Coumarin. […] Excitation 360 nm, Emission 465 nm. Enzyme is added to the substance dilutions in 96-well microtitre plates and the reaction is started with substrate.

Chain of Procathepsin L (P07711 whole entry): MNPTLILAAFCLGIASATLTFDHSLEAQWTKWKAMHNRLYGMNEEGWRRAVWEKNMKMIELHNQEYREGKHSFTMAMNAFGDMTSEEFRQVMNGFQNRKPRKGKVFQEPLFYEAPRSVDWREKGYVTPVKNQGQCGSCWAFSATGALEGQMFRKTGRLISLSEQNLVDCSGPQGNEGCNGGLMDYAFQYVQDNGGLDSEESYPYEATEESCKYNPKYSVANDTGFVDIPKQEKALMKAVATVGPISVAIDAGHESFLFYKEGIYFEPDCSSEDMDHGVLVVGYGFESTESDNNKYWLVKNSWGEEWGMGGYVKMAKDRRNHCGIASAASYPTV

Q: Which IC50 does the source give for `N#Cc1ccc2c(c1)C(=O)N[C@H](C(=O)NC1(C#N)CC1)Cc1ccc(c(Cl)c1)OC/C=C/CO2` here?
A: 6.9 nM
